# Experimental data taken from US20070082949A1, “Agent for preventing and treating language disorders” (priority 2003, published 2007).
# Columns and labels:
# language disorder = experiment: Effect of EPA-E on a language-disordered patient with a history of cerebral infarction; format: in vivo, human
# Description: A person with the history of cerebral infarction was treated. The patient experienced cerebral infarction in November, 2001, and started rehabilitation therapy of left hemiplegia from April, 2002. In June, 2002, the patient was hospitalized for 1 month because of recurrence of the cerebral infarction, and again started the rehabilitation therapy from August, 2002. The drugs that the patient had been taking before the EPA-E include: Gramalil (trade name; manufactured by Fujisawa Pharmaceutical Co., Ltd.; generic name, tiapride hydrochloride), Ketas (trade name; manufactured by Kyorin Pharmaceutical Co., Ltd.; generic name, ibudilast), Panaldine (trade name; manufactured by Daiichi Pharmaceutical Co., Ltd.; generic name, ticlopidine hydrochloride), Nivadil (trade name; manufactured by Fujisawa Pharmaceutical Co., Ltd.; generic name, nilvadipine), Altat (trade name; manufactured by Teikoku Hormone Mfg. Co., Ltd.; generic name, roxatidine acetate hydrochloride).
# Before taking EPA-E, the patient could barely bring out a word. From September, 2002, the patient was administered with Epadel S600 (trade name; manufactured by Mochida Pharmaceutical Co., Ltd.; generic name, ethyl icosapentate) at a dose 600 mg and 3 times a day (namely, at a daily dose of 1800 mg).
# [1] = tested on: cell derived from mouse connective tissue; conditions: cited from earlier work
# rat = conditions: delayed discrimination test in rat; cited from earlier work
SMILES,"side effects (overall conclusion) (language disorder; human, in vivo)",therapeutic effect for language disorder (overall conclusion) (language disorder; summary of Example 1),NGF production [1],correct reaction rate (rat),"speech / conversation of the patient (language disorder; 1800 mg/day from September 2002, December 2002)","frequency of conversation, vocabulary, communication ability (language disorder; 1800 mg/day from September 2002, February 2003)","frequency of conversation and vocabulary (language disorder; 1800 mg/day from September 2002, January 2003)","speech / conversation of the patient (language disorder; 1800 mg/day from September 2002, November 2002)","adverse events (language disorder; 1800 mg/day, 6 months from the start of the administration)","speech / conversation of the patient (language disorder; person, Epadel S600 600 mg 3 times a day (1800 mg/day) from September 2002, late October 2002)"
"CC/C=C\C/C=C\C/C=C\C/C=C\C/C=C\CCCC(=O)O [EPA, all-cis-5,8,11,14,17-icosapentaenoic acid]",no side effects,significant therapeutic effects for language disorder,action of enhancing NGF production,increase of correct reaction rate,,,,,,
"CC/C=C\C/C=C\C/C=C\C/C=C\C/C=C\CCCC(=O)OCC [EPA-E, ethyl icosapentate]",,,,,able to carry on a complicated conversation comprising not only a single word but a plurality of words,"further improvement was noted in the frequency of conversation, vocabulary, communication ability",the frequency of the conversation as well as vocabulary increased even further,"responding “not hurting anywhere” when fallen from the bed, and waking up at night and responding “I am not sleepy”",no adverse event suggested to be caused by EPA-E was found,"started to respond by saying “Good morning”, and also started brief conversation with the care giver during the meal"
